US20180273503A1, “NOVEL ANGIOTENSIN CONVERTING ENZYME INHIBITOR” (RIKEN, priority 2015, published 2018)

Target: T1, angiotensin converting enzyme (ACE) (Homo sapiens, UniProt P12821)
T1 construct: purchased Dojindo Laboratories A502
Assay: ACE inhibitory activity assay (ACE Kit-WST, A502, Dojindo Laboratories)
Format: biochemical
Details: for IC50: 3HB-GGG substrate, absorbance 450 nm, N.D. = ACE inhibitory activity was not detected in the test, read-out: IC50 concerning ACE activity
Excerpt: ACE inhibitory activity can be quantitatively evaluated with the use of, for example, a commercially available kit for ACE inhibitory activity assay. […] For example, ACE inhibitory activity of a target sample (e.g., a compound) can be evaluated with the use of a commercially available kit for ACE inhibitory activity assay (ACE Kit-WST, A502, Dojindo Laboratories) in the manner described below. In principle, such kit enzymatically detects 3-hydroxybutyric acid (3HB) cleaved from 3-hydroxybutyryl-glycyl-glycyl-glycine (3HB-GGG) by ACE activity. In accordance with the instructions of the kit, a sample solution containing a test compound at a given concentration is prepared in a reaction vessel, and a control solution is prepared with the addition of the same volume of water instead of the sample solution in another reaction vessel. An enzyme reaction solution is added to each reaction vessel, and the reaction is then allowed to proceed, respectively. As a blank sample, a solution prepared with the addition of the same volume of water instead of the enzyme solution is subjected to the same treatment. The absorbance (450 nm) of the chromogenic indicator used in the enzymatic method generated together with 3HB cleaved from 3HB-GGG by ACE activity is measured. On the basis of the values measured for the sample, the control sample, and the blank sample, ACE inhibitory activity of each sample is determined using the formula shown below. Alternatively, ACE inhibitory activity of the target sample can be evaluated in the manner described below. A substrate peptide that is a mimic of a C-terminal region of angiotensin I (e.g., hippuryl-histidyl-leucine (HHL)) and a sample are mixed with each other in an appropriate buffer solution. ACE is added to the resulting mixture and an enzymatic reaction is performed under appropriate conditions (e.g., 37° C. and pH 8.3) for a given period of time. After the enzymatic reaction is terminated, a product generated from the substrate peptide (e.g., hippuric acid in the case of HHL) is quantitatively measured via analytical means, such as absorbance measurement, immunoanalysis such as ELISA or RIA, or chromatography analysis such as HPLC or LC-MS. A sample-free control and an ACE-free blank are subjected to the same experiment. On the basis of the values measured for the sample, the control sample, and the blank sample, ACE inhibitory activity of each sample is determined using the formula shown below. […]
In principle, such kit enzymatically detects 3-hydroxybutyric acid (3HB) cleaved from 3-hydroxybutyryl-glycyl-glycyl-glycine (3HB-GGG) by ACE activity. […] The absorbance (450 nm) of the chromogenic indicator used in the enzymatic method generated together with 3HB cleaved from 3HB-GGG by ACE activity was measured.

T1 sequence (P12821 30-1306, species assumed): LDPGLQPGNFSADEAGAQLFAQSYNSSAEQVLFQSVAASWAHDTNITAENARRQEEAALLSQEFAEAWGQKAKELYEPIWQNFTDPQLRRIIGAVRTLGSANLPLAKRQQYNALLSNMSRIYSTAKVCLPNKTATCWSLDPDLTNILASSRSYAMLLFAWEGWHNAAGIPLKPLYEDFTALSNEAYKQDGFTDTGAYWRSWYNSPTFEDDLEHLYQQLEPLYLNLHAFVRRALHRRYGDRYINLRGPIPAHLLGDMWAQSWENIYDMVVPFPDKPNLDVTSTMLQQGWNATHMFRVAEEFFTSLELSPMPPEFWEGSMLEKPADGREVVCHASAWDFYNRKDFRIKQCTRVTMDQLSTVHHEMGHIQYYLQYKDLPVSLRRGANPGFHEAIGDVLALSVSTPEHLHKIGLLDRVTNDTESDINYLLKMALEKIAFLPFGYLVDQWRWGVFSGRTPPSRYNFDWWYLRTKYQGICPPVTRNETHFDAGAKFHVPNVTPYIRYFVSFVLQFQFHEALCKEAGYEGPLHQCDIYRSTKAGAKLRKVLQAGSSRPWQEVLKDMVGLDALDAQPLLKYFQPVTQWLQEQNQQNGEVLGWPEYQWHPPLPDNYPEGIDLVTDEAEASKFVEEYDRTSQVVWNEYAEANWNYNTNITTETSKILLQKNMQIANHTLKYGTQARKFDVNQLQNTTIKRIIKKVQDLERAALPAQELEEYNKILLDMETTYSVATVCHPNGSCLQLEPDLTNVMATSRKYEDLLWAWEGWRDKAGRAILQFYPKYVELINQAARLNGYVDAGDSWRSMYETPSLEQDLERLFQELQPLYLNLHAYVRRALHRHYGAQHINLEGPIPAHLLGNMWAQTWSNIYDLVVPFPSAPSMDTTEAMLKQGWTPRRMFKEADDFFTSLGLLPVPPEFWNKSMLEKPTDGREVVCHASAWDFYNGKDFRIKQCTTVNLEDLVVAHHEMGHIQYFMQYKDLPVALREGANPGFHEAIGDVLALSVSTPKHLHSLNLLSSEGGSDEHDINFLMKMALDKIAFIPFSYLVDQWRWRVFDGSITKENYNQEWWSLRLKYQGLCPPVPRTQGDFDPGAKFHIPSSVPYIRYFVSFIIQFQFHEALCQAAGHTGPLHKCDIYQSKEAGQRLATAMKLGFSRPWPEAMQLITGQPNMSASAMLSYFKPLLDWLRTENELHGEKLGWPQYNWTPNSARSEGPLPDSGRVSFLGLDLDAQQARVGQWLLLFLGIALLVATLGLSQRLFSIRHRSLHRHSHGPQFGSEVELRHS

Compound: N[C@@H](CCN[C@@H](CCN1CC[C@H]1C(=O)O)C(=O)O)C(=O)O [Nicotianamine, nicotianamine]
- IC50: 18.7 ± 0.54 µM

Compound: O=C(O)CCC(=O)N1CCC[C@H]1C(=O)O [N-Succinyl-L-proline, N-succinyl-L-proline]
- IC50: 14.5 ± 5.3 µM

Compound: N=C(N)NCCC[C@H](NC(=O)C1CSSC1)C(=O)O [Asparaptine, asparaptine]
- IC50: 113 µM
- concentration at which ACE inhibitory activity is exerted (from the dose-response data): exceeding 1 μM
